This is an account of results in patent publication US20040023972A1, “Use of substituted imidazo[1,2-a]-pyridin-, -pyrimidin-and-pyrazin-3-yl-amine derivatives in the preparation of medicaments for inhibiting NOS” (Gruenenthal GmbH, priority 2000, published 2004).

In the test the target is T1, NO synthase (Rattus norvegicus, UniProt P29476).
T1 construct: the supernatant was then removed by decantation and frozen in portions at −80° C; from tissue; host or cells: rat cerebellum, 20,000 g supernatant of homogenate
The experiment in a line: HTS-NOS assay (NOS assay): conversion of radioactive arginine, cation-exchanger filter plate. Format: biochemical. To be noted: for inhibition at 10 µM: read-out: HTS-NOS assay: % inhibition (10 μM). An outline of the steps: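 Percent inhibition was derived by comparing remaining radioactive arginine with compound-free controls. Arginine retained on phosphate cation-exchanger filters was counted after citrulline washout, following a 5-60 min room-temperature (25 °C) reaction of labelled arginine, NADPH-containing medium and rat cerebellar homogenate supernatant.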

Each structure is given as a SMILES string.

Consider `CC(=O)N(c1c(C)cccc1C)c1c(-c2cccc(O)c2)nc2nc(C)cc(C)n12` [Example 272, N-(2,6-dimethyl-phenyl)-N-[2-(3-hydroxy-phenyl)-5,7-dimethyl-imidazo[1,2-a]-pyrimidin-3-yl]-acetamide], for which the inhibition (usually how much of the control response was suppressed) at 10 µM amounted to 54%. The same measure, in the same setting: the figure for `COC(=O)CN(C(C)=O)c1c(C)nc2cc(C)ccn12` [Example 174, [acetyl-(2,7-dimethyl-imidazo[1,2-a]pyridin-3-yl)-amino]-acetic acid methyl ester] is 68%. The same measure, in the same setting: with `CC(=O)N(c1c(-c2ccc(Cl)cc2Cl)nc2cc(C)cc(C)n12)C(C)(C)CC(C)(C)C` [Example 177, N-[2-(2,4-dichloro-phenyl)-5,7-dimethyl-imidazo[1,2-a]pyridin-3-yl]-N-(1,1,3,3-tetramethyl-butyl)-acetamide] the figure was 67%. Same read-out and setting: the figure for `CC(=O)N(c1c(-c2ccc(C(=O)O)o2)nc2c(C)cccn12)C(C)(C)CC(C)(C)C` [Example 230, 5-{3-[acetyl-(1,1,3,3-tetramethyl-butyl)-amino]-8-methyl-imidazo[1,2-a]pyridin-2-yl}-furan-2-carboxylic acid] is 52%; for `CC(=O)N(c1c(-c2ccc(C3OCCO3)o2)nc2cc(C)cc(C)n12)C(C)(C)CC(C)(C)C` [Example 188, N-[2-(5-[1,3]dioxolan-2-yl-furan-2-yl)-5,7-dimethyl-imidazo[1,2-a]pyridin-3-yl]-N-(1,1,3,3-tetramethyl-butyl)-acetamide] it is 50%. Take `Cc1ccn2c(NC(C)(C)C)c(-c3cccnc3)nc2c1` [Example 1, Tert-butyl-(7-methyl-2-pyridin-3-yl-imidazo[1,2-a]pyridin-3-yl)-amine]: the inhibition at 10 µM is 63%. Same read-out and setting: with `CCCc1cccc2nc(-c3ccco3)c(N(C(C)=O)C(C)(C)CC(C)(C)C)n12` [Example 228, N-(2-furan-2-yl-5-propyl-imidazo[1,2-a]pyridin-3-yl)-N-(1,1,3,3-tetramethylbutyl)-acetamide] the figure was 53%; with `CCCCN(C(C)=O)c1c(-c2ccc(C)cc2)nc2ccc(C)cn12` [Example 280, N-butyl-N-(6-methyl-2-p-tolyl-imidazo[1,2-a]pyridin-3-yl)-acetamide], 53%; with `Cc1ccc2nc(-c3cccc(Cl)c3Cl)c(NC(C)(C)CC(C)(C)C)n2c1` [Example 112, [2-(2,3-Dichloro-phenyl)-6-methyl-imidazo[1,2-a]pyridin-3-yl]-(1,1,3,3-tetramethyl-butyl)-amine], 52%. Still for that read-out and setting: the figure for `CC(=O)N(c1c(-c2ccco2)nc2c(Br)cc(Br)cn12)C(C)(C)CC(C)(C)C` [Example 165, N-(6,8-dibromo-2-furan-2-yl-imidazo[1,2-a]pyridin-3-yl)-N-(1,1,3,3-tetramethylbutyl)-acetamide] is 67%; for `CC(=O)N(c1c(-c2ccco2)nc2cc(C)ccn12)C(C)(C)C` [Example 190, N-tert-butyl-N-(2-furan-2-yl-7-methyl-imidazo[1,2-a]pyridin-3-yl)-acetamide] it is 69%. On the same count and under the same terms, with `CC(=O)N(c1c(-c2ccc(C)s2)nc2ncccn12)C(C)(C)C` [Example 266, N-tert-butyl-N-[2-(5-methyl-thiophen-2-yl)-imidazo[1,2-a]pyrimidin-3-yl]-acetamide] the figure was 53%; with `Cc1ccn2c(NC(C)(C)CC(C)(C)C)c(-c3ccncc3)nc2c1` [Example 29, (7-Methyl-2-pyridin-4-yl-imidazo[1,2-a]-pyridin-3-yl)-(1,1,3,3-tetramethyl-butyl)-amine], 69%. For the molecule `Cc1ccn2c(NC3CCCCC3)c(-c3cccs3)nc2c1` [Example 11, Cyclohexyl-(7-methyl-2-thiophen-2-yl-imidazo[1,2-a]pyridin-3-yl)-amine], the inhibition at 10 µM was 60%.

Consider `CCc1ccn2c(Nc3ccc(F)c(Cl)c3)c(-c3ccc(-c4ccccc4Cl)o3)nc2c1` [Example 321, (3-Chloro-4-fluorophenyl)-{2-[5-(2-chlorophenyl)-furan-2-yl]-7-ethyl-imidazo[1,2-a]pyridin-3-yl}-amine], for which the inhibition at 10 µM was 50%. `Cc1cccn2c(NC(C)(C)C)c(C3CCCCC3)nc12` [Example 123, Tert-butyl-(2-cyclohexyl-8-methyl-imidazo[1,2-a]pyridin-3-yl)-amine]: the inhibition at 10 µM stood at 53%. As to `Cc1cc(C)n2c(NC3CCCCC3)c(-c3ccccn3)nc2c1` [Example 114, Cyclohexyl-(5,7-dimethyt-2-pyridin-2-yl-imidazo[1,2-a]pyridin-3-yl)-amine], the “HTS-NOS assay: % inhibition (10 μM)” value is on record as 53%. For the molecule `[C-]#[N+]CCCCCCN(C(C)=O)c1c(-c2cccnc2)nc2cc(C)cc(C)n12` [Example 232, {6-[acetyl-(5,7-dimethyl-2-pyridin-3-yl-imidazo[1,2-a]pyridin-3-yl)-amino]-hexyl}-methylidyne-ammonium], the “HTS-NOS assay: % inhibition (10 μM)” value was determined as 59%. Same read-out and setting: with `C#[N+]CCCCCCN(C(C)=O)c1c(-c2ccc(C)cc2)nc2cc(C)ccn12` [Example 279, {6-[acetyl-(7-methyl-2-p-tolyl-imidazo[1,2-a]pyridin-3-yl)-amino]-hexyl}-methylidyne-ammonium] the figure was 71%. Turning to `CC(=O)N(c1c(-c2ccc(CO)o2)nc2cc(C)cc(C)n12)C(C)(C)CC(C)(C)C` [Example 155, N-[2-(5-hydroxymethyl-furan-2-yl)-5,7-dimethyl-imidazo[1,2-a]pyridin-3-yl]-N-(1,1,3,3-tetramethyl-butyl)-acetamide], the inhibition at 10 µM was determined as 50%. Take `CC(=O)N(c1c(-c2ccc(C)cc2)nc2ccc(C)cn12)C(C)(C)CC(C)(C)C` [Example 242, N-(6-methyl-2-p-tolyl-imidazo[1,2-a]pyridin-3-yl)-N-(1,1,3,3-tetramethyl-butyl)-acetamide]: the inhibition at 10 µM came out at 58%.

With `Cc1ccn2c(NC3CCCCC3)c(-c3ccc(C(=O)O)o3)nc2c1` [Example 91, 5-(3-Cyclohexylamino-7-methyl-imidazo[1,2-a]pyridin-2-yl)-furan-2-carboxylic acid], the inhibition at 10 µM was found to be 64%. Consider `Cc1ccn2c(NC3CCCCC3)c(-c3ccccc3C)nc2c1` [Example 10, Cyclohexyl-(7-methyl-2-o-tolyl-imidazol[1,2-a]pyridin-3-yl)-amine], for which the “HTS-NOS assay: % inhibition (10 μM)” value worked out at 54%. As for `CC(=O)N(c1c(C)cccc1C)c1c(-c2cccc(Cl)c2Cl)nc2cccc(C)n12` [Example 236, N-[2-(2,3-dichloro-phenyl)-5-methyl-imidazo[1,2-a]pyridin-3-yl]-N-(2,6-dimethyl-phenyl)-acetamide], the inhibition at 10 µM was 58%.

Consider `C#[N+]CCCCCCNc1c(-c2ccc[nH]2)nc2cc(C)cc(C)n12` [Example 4, {6-[5,7-Dimethyl-2-(1H-pyrrol-2-yl)-imidazo[1,2-a]pyridin-3-ylamino]-hexyl}-methylidyne-ammonium], for which the “HTS-NOS assay: % inhibition (10 μM)” value was found to be 54%. For the molecule `Cc1ccn2c(Nc3c(C)cccc3C)c(-c3cc4ccccc4o3)nc2c1` [Example 90, (2-benzofuran-2-yl-7-methyl-imidazo[1,2-a]-pyridin-3-yl)-(2,6-dimethyl-phenyl)-amine], the inhibition at 10 µM amounted to 53%. Same read-out and setting: with `CC(=O)N(c1c(-c2ccc(F)cc2Cl)nc2ccccn12)C(C)(C)C` [Example 291, N-tert-butyl-N-[2-(2-chloro-4-fluoro-phenyl)-imidazo[1,2-a]pyridin-3-yl]-acetamide] the figure was 53%. Same read-out and setting: the figure for `CC(=O)N(c1c(-c2ccc(C(=O)O)s2)nc2ccccn12)C(C)(C)C` [Example 218, 5-[3-(acetyl-tert-butyl-amino)-imidazo[1,2-a]pyridin-2-yl]-thiophene-2-carboxylic acid] is 60%; for `CC(=O)N(c1c(-c2ccc([N+](=O)[O-])o2)nc2cc(C)ccn12)C(C)(C)C` [Example 198, N-tert-butyl-N-[7-methyl-2-(5-nitro-furan-2-yl)-imidazo[1,2-a]pyridin-3-yl]-acetamide] it is 54%; for `CC(=O)N(c1c(-c2ccccn2)nc2cc(C)ccn12)C(C)(C)C` [Example 191, N-tert-butyl-N-(7-methyl-2-pyridin-2-yl-imidazo[1,2-a]pyridin-3-yl)-acetamide] it is 57%.

In the case of `CC(=O)N(c1c(-c2ccccn2)nc2cc(C)cc(C)n12)C1CCCCC1` [Example 259, N-cyclohexyl-N-(5,7-dimethyl-2-pyridin-2-yl-imidazo[1,2-a]pyridin-3-yl)-acetamide], the inhibition at 10 µM was 73%. Still for that read-out and setting: with `Cc1cccn2c(NC(C)(C)C)c(-c3ccccn3)nc12` [Example 120, Tert-butyl-(8-methyl-2-pyridin-2-yl-imidazo[1,2-a]pyridin-3-yl)-amine] the figure was 56%; with `CCCc1cccc2nc(-c3cccnc3)c(N(C(C)=O)C(C)(C)C)n12` [Example 265, N-tert-butyl-N-(5-propyl-2-pyridin-3-yl-imidazo[1,2-a]pyridin-3-yl)-acetamide], 54%.

On to `COc1cccc(-c2nc3cc(C)cc(C)n3c2NC(C)(C)CC(C)(C)C)c1OC` [Example 108, (2-(2,3-Dimethoxy-phenyl)-5,7-dimethyl-imidazo[1,2-a]pyridin-3-yl]-(1,1,3,3-tetramethyl-butyl)-amine], for which the inhibition at 10 µM was determined as 73%.

For `Cc1cc(C)n2c(Nc3c(C)cccc3C)c(-c3ccccc3F)nc2c1` [Example 34], the “HTS-NOS assay: % inhibition (10 μM)” value amounted to 61%. Consider `CC(=O)N(c1c(C)cccc1C)c1c(-c2cc3ccccc3o2)nc2cc(C)ccn12` [Example 239, N-(2-benzofuran-2-yl-7-methyl-imidazo[1,2-a]pyridin-3-yl)-N-(2,6-dimethylphenyl)-acetamide], for which the inhibition at 10 µM is 52%. Same read-out and setting: with `Cc1cccn2c(NC3CCCCC3)c(-c3ccco3)nc12` [Example 121, Cyclohexyl-(2-furan-2-yl-8-methyl-imidazo[1,2-a]pyridin-3-yl)-amine] the figure was 53%.
